Assay results from US20230303570A1, “KINASE INHIBITORS AND USES THEREOF” (ABM Therapeutics Corporation, priority 2020, published 2023).
Blank lines part the entries; values can stand above or below the compound they belong to.

Key:
[1] = target: T1, Axl (Homo sapiens, UniProt P30530); assay: AXL kinase mobility shift assay; format: biochemical
T1 sequence (P30530 26-894): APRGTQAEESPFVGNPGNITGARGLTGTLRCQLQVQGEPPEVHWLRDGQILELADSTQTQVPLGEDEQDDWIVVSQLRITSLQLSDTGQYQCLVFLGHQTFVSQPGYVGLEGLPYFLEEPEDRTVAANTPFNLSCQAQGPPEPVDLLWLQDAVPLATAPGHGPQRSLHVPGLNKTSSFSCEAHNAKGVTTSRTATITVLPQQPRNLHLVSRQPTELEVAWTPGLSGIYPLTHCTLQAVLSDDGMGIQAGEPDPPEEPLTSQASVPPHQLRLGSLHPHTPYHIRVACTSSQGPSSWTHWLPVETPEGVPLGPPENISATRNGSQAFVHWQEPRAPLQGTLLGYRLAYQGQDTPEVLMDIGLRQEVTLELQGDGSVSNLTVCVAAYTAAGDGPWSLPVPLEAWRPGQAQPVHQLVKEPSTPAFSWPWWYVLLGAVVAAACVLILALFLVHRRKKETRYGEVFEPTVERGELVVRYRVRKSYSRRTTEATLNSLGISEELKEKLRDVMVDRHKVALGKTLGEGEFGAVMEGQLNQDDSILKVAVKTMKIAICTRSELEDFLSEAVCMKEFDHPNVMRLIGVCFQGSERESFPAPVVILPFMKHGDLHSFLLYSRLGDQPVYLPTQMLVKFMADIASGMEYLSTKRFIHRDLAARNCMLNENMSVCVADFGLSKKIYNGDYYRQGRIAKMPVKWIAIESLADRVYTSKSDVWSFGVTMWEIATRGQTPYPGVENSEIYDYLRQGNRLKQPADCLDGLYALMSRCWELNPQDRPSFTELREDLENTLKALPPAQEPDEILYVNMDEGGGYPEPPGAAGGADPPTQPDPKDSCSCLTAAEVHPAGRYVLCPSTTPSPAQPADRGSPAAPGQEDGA
Description: (§1) The effect of the compounds on the activity of cKit, RET and AXL kinases were assessed by Mobility shift assay. • 1. 1× kinase base buffer and stop buffer for testing kinases were prepared • 1-1) 1× Kinase base buffer (50 mM HEPES, pH 7.5, 0.01% Triton X-100) • 1-2) Stop buffer (100 mM HEPES, pH 7.5, 0.015% Brij-35, 0.2% Coating Reagent #3, 50 mM EDTA) • 2. Compound and assay plate preparation: the compound was diluted to 50× of the final desired highest inhibitor concentration in reaction by 100% DMSO. 100 μl of this compound dilution was transferred to a well in a 96-well plate. For example, if the highest desired concentration was 5 μM, then 250 μM of compound DMSO solution was prepared in this step. For all compounds, the compound was serially diluted by transferring 10 μl to 70 μl of 100 DMSO in the next well and so forth for a total of 5 concentrations. 100 μl of 100% DMSO was added to two empty wells for no compound control and no enzyme control in the same 96-well plate. The plate was labeled as source plate. The intermediate plate was prepared by transferring 10 μl of compound from source plate to a new 96-well plate as the intermediate plate, adding 90 μl of 1× kinase buffer to each well of the intermediate plate, mixing the compounds in intermediate plate for 10 min on shaker. 5 μl of each well from the 96-well intermediate plate were transferred to a 384-well plate in duplicates. For example, A1 of the 96-well plate was transferred to A1 and A2 of the 384-well plate. A2 of the 96-well plate was transferred to A3 and A4 of the 384-well plate, and so on. • 4. Kinase reaction: The assay plate already contained 5 μl of compound in 10% DMSO. A 2.5× enzyme solution was prepared by adding kinases (cKit, RET, or AXL) and DTT in 1× kinase base buffer. 2.5× enzyme solution was transferred to the assay plate (by adding 10 μl of 2.5× enzyme solution to each well of the 384-well assay plate). The plate was incubated at room temperature for 10 min. 2.5× peptide solution was prepared by adding FAM-labeled peptide, ATP, MgCl2 in the 1× kinase base buffer. 2.5× peptide solution was added to the assay plate by adding 10 μl of 2.5× peptide solution to each well of the 384-well assay plate. The plate was incubated at 28° C. for the specified period of time. 25 μl of stop buffer was added to stop reaction. Data was collected on Caliper.

[2] = target: c-Kit (Homo sapiens, UniProt P10721); assay: cKit kinase mobility shift assay; format: biochemical
Sequence of c-Kit (P10721 26-976): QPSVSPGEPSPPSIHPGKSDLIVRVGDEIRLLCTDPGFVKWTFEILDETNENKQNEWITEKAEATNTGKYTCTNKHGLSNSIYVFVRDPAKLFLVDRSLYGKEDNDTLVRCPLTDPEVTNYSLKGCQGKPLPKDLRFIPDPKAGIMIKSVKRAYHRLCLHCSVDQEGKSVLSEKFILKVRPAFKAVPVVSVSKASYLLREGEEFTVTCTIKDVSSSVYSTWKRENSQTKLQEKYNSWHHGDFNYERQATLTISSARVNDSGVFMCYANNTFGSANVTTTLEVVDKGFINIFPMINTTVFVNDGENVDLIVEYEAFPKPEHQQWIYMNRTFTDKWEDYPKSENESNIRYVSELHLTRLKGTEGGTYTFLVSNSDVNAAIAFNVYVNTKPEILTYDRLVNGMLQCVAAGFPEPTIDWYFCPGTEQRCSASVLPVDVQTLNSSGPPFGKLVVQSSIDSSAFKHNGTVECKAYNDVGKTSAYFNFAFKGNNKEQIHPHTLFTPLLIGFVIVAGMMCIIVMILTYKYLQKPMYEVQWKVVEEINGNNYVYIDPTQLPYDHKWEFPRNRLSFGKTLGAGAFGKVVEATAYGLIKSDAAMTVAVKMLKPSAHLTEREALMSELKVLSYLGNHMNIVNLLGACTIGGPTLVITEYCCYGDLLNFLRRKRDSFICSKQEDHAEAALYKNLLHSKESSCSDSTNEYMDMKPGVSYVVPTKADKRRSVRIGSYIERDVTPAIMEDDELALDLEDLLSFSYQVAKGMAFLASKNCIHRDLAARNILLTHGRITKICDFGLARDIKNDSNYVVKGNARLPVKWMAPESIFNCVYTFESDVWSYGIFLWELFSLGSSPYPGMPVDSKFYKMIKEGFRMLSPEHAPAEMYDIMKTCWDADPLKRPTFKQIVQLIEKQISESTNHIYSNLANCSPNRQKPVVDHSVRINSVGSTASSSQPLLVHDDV
Description: as §1

[3] = target: HPK1 (MAP4K1) (Homo sapiens, UniProt Q92918); assay: HPK1 (MAP4K1) kinase Lantha screen assay; format: biochemical
Sequence of HPK1 (MAP4K1) (Q92918 whole entry, species assumed): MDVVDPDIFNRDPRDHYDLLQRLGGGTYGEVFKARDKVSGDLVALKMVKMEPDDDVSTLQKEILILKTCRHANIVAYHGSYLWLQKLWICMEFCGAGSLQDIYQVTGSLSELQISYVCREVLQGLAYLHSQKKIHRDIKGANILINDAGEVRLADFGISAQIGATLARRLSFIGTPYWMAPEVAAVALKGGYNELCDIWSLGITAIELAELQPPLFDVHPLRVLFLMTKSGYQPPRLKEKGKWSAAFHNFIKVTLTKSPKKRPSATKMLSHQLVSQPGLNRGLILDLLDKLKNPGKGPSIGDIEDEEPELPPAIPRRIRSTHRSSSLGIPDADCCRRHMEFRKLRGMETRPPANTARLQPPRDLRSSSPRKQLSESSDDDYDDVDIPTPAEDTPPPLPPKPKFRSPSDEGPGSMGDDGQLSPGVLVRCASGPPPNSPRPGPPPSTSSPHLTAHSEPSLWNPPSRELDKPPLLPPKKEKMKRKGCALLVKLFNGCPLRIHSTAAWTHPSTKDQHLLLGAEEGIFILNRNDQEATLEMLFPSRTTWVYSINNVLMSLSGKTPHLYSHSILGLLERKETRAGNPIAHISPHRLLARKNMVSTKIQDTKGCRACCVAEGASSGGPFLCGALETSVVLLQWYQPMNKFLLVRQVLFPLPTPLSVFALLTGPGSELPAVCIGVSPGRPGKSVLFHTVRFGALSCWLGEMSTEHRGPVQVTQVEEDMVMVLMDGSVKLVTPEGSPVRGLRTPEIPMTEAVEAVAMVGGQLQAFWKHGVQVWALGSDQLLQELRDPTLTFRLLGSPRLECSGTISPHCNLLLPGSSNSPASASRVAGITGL
In short: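 Recombinant MAP4K1 preincubated 10 min with compound (6-point dilution, duplicates) in 50 mM HEPES pH 7.5, 10 mM MgCl2, then reacted with Fluorescein-PKC substrate and ATP for 90 min at room temperature. Antibody detection solution stopped reaction; after 60 min, TR-FRET read at ex 340 nm, em 520/495 nm.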

[4] = Mouse pharmacokinetics study (intravenous and oral); format: in vivo; settings: CD-1 mice
Excerpt: The test articles were formulated in […] Hydroxypropyl-beta-cyclodextrin, either as a clear solution or fine suspension.

[5] = target: PAK1 (Homo sapiens, UniProt Q13153); assay: In vitro kinase assay, PAK1 (Caliper EZ Reader conversion); format: biochemical; design: purchased Carna Biosciences
Sequence of PAK1 (Q13153 whole entry): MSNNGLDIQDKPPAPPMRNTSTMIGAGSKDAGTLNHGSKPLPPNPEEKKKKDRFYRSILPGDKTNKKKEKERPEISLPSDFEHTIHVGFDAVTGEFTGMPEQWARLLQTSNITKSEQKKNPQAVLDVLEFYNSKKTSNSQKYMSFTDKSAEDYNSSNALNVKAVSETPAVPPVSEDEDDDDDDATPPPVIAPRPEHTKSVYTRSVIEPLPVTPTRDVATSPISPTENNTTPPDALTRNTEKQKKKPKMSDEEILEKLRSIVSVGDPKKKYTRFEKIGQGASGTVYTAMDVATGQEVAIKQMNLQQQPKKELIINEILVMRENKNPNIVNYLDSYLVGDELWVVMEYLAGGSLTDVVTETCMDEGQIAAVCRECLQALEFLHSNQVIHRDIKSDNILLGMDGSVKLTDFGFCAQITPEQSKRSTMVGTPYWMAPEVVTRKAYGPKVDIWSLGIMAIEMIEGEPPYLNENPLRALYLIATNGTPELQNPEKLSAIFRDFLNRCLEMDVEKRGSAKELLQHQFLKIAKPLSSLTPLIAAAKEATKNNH
In short: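 Human PAK1 was preincubated with compound (6 concentrations, 4-fold dilutions) for 10 min at room temperature, then reacted with substrate mix for 30 and 60 min. Substrate conversion was read by Caliper mobility shift. IC50 was fitted by variable-slope log(inhibitor)–response, normalised to FRAX597 and buffer controls.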

- IC50 [1]: > 10 µM
Structure (SMILES): CNc1ncc2c(n1)N1CCN=C1C(c1c(C)ccc(NS(=O)(=O)c3ccccc3OC(F)(F)F)c1F)=C2 [Compound 299, N-(2-fluoro-4-methyl-3-(2-(methylamino)-8,9-dihydroimidazo[1′,2′:1,6]pyrido[2,3-d]pyrimidin-6-yl)phenyl)-2-(trifluoromethoxy)benzenesulfonamide]

- IC50 [2]: 0.1 to 10 µM
- IC50 [3]: < 0.1 µM
- F ([4]; PO 25 mg/kg): 66.7 ± 14.3%
- Vd ([4]; mouse, plasma, IV 5 mg/kg): 4.06 ± 0.37 L/kg
- half-life ([4]; mouse, plasma, IV 5 mg/kg): 2.76 ± 0.22 h
- clearance ([4]; mouse, plasma, IV 5 mg/kg, read-out: Clp): 17 ± 0.3 mL/min/kg
- AUC ([4]; mouse, plasma, PO 25 mg/kg): 16300 ± 3490 ng·h/mL
- Cmax ([4]; mouse, plasma, PO 25 mg/kg): 2560 ± 505 ng/mL
- Tmax ([4]; mouse, plasma, PO 25 mg/kg): 2 h
Structure (SMILES): Cc1cc(F)c(NC(=O)c2cc(C(F)(F)F)ccn2)cc1C1=Cc2cnc(NC3COC3)nc2N2CCN=C12 [Compound 178, N-(2-fluoro-4-methyl-5-(2-(oxetan-3-ylamino)-8,9-dihydroimidazo[1′,2′:1,6]pyrido[2,3-d]pyrimidin-6-yl)phenyl)-4-(trifluoromethyl)picolinamide]

- IC50 [1]: > 10 µM
Structure (SMILES): CNc1ncc2c(n1)N1CCN=C1C(c1c(C)ccc(NS(=O)(=O)c3c(F)cccc3F)c1F)=C2 [Compound 297, 2,6-difluoro-N-(2-fluoro-4-methyl-3-(2-(methylamino)-8,9-dihydroimidazo[1′,2′:1,6]pyrido[2,3-d]pyrimidin-6-yl)phenyl)benzenesulfonamide]

- IC50 [5]: 0.1 to 10 µM
- IC50 [2]: 0.1 to 10 µM
Structure (SMILES): CN1CCN(c2ccc(Nc3ncc4c(n3)N3CCN=C3C(c3ccccc3Cl)=C4)cn2)CC1 [Compound 92, 6-(2-chlorophenyl)-N-(6-(4-methylpiperazin-1-yl)pyridin-3-yl)-8,9-dihydroimidazo[1′,2′:1,6]pyrido[2,3-d]pyrimidin-2-amine]

- IC50 [1]: > 10 µM
Structure (SMILES): CNc1ncc2c(n1)N1CCN=C1C(c1c(C)ccc(NS(=O)(=O)c3c(Cl)cccc3Cl)c1F)=C2 [Compound 296, 2,6-dichloro-N-(2-fluoro-4-methyl-3-(2-(methylamino)-8,9-dihydroimidazo[1′,2′:1,6]pyrido[2,3-d]pyrimidin-6-yl)phenyl)benzenesulfonamide]

- IC50 [1]: > 10 µM
Structure (SMILES): CNc1ncc2c(n1)N1CCN=C1C(c1cc(NS(=O)(=O)Cc3ccccc3)c(F)cc1C)=C2 [Compound 293, N-(2-fluoro-4-methyl-5-(2-(methylamino)-8,9-dihydroimidazo[1′,2′:1,6]pyrido[2,3-d]pyrimidin-6-yl)phenyl)-1-phenylmethanesulfonamide]

- IC50 [2]: < 0.1 µM
- AUC ([4]; mouse, plasma, PO 25 mg/kg): 11300 ± 3010 ng·h/mL
- Cmax ([4]; mouse, plasma, PO 25 mg/kg): 1060 ± 108 ng/mL
- Tmax ([4]; mouse, plasma, PO 25 mg/kg): 1.33 ± 0.58 h
Structure (SMILES): Cc1ccc(NC(=O)c2cc(C(C)(C)F)ccn2)cc1C1=Cc2cnc(Nc3cnn(C)c3)nc2N2CCN=C12 [Compound 196, 4-(2-fluoropropan-2-yl)-N-(4-methyl-3-(2-((1-methyl-1H-pyrazol-4-yl)amino)-8,9-dihydroimidazo[1′,2′:1,6]pyrido[2,3-d]pyrimidin-6-yl)phenyl)picolinamide]

- IC50 [1]: > 10 µM
Structure (SMILES): Cc1ccc(NS(=O)(=O)c2ccccc2Cl)c(F)c1C1=Cc2cnc(NC3COC3)nc2N2CCN=C12 [Compound 303, 2-chloro-N-(2-fluoro-4-methyl-3-(2-(oxetan-3-ylamino)-8,9-dihydroimidazo[1′,2′:1,6]pyrido[2,3-d]pyrimidin-6-yl)phenyl)benzenesulfonamide]

- IC50 [1]: > 10 µM
Structure (SMILES): CNc1ncc2c(n1)N1CCN=C1C(c1cc(NS(=O)(=O)c3ccccc3Cl)c(F)cc1C)=C2 [Compound 286, 2-chloro-N-(2-fluoro-4-methyl-5-(2-(methylamino)-8,9-dihydroimidazo[1′,2′:1,6]pyrido[2,3-d]pyrimidin-6-yl)phenyl)benzenesulfonamide]

- IC50 [1]: > 10 µM
Structure (SMILES): CNc1ncc2c(n1)N1CCN=C1C(c1ccc(C(=O)Nc3cc(C(F)(F)F)ccn3)c(F)c1)=C2 [Compound 270, 2-fluoro-4-(2-(methylamino)-8,9-dihydroimidazo[1′,2′:1,6]pyrido[2,3-d]pyrimidin-6-yl)-N-(4-(trifluoromethyl)pyridin-2-yl)benzamide]

- IC50 [1]: 0.1 to 10 µM
Structure (SMILES): CNc1ncc2c(n1)N1CCN=C1C(c1ccc(C(=O)Nc3ccccc3Cl)cc1)=C2 [Compound 275, N-(2-chlorophenyl)-4-(2-(methylamino)-8,9-dihydroimidazo[1′,2′:1,6]pyrido[2,3-d]pyrimidin-6-yl)benzamide]

- IC50 [1]: > 10 µM
Structure (SMILES): CNc1ncc2c(n1)N1CCN=C1C(c1c(C)ccc(NS(=O)(=O)c3ccccc3C(F)(F)F)c1F)=C2 [Compound 298, N-(2-fluoro-4-methyl-3-(2-(methylamino)-8,9-dihydroimidazo[1′,2′:1,6]pyrido[2,3-d]pyrimidin-6-yl)phenyl)-2-(trifluoromethyl)benzenesulfonamide]

- IC50 [1]: > 10 µM
Structure (SMILES): CNc1ncc2c(n1)N1CCN=C1C(c1cc(NS(=O)(=O)c3ccccn3)c(F)cc1C)=C2 [Compound 292, N-(2-fluoro-4-methyl-5-(2-(methylamino)-8,9-dihydroimidazo[1′,2′:1,6]pyrido[2,3-d]pyrimidin-6-yl)phenyl)pyridine-2-sulfonamide]

- IC50 [1]: 0.1 to 10 µM
Structure (SMILES): CNc1ncc2c(n1)N1CCN=C1C(Oc1ccc(NC(=O)C3(C(=O)Nc4ccc(F)cc4)CC3)cc1)=C2 [Compound 345, N-(4-fluorophenyl)-N-(4-((2-(methylamino)-8,9-dihydroimidazo[1′,2′:1,6]pyrido[2,3-d]pyrimidin-6-yl)oxy)phenyl)cyclopropane-1,1-dicarboxamide]

- IC50 [1]: > 10 µM
Structure (SMILES): Cc1ccc(NS(=O)(=O)c2cc(F)ccc2F)c(F)c1C1=Cc2cnc(NC3COC3)nc2N2CCN=C12 [Compound 302, 2,5-difluoro-N-(2-fluoro-4-methyl-3-(2-(oxetan-3-ylamino)-8,9-dihydroimidazo[1′,2′:1,6]pyrido[2,3-d]pyrimidin-6-yl)phenyl)benzenesulfonamide]

- IC50 [2]: < 0.1 µM
- IC50 [3]: 0.1 to 10 µM
Structure (SMILES): CNc1ncc2c(n1)N1CCN=C1C(c1cc(NC(=O)Nc3ccccc3Cl)c(F)cc1C)=C2 [Compound 331, 1-(2-chlorophenyl)-3-(2-fluoro-4-methyl-5-(2-(methylamino)-8,9-dihydroimidazo[1′,2′:1,6]pyrido[2,3-d]pyrimidin-6-yl)phenyl)urea]

- IC50 [2]: < 0.1 µM
- IC50 [3]: < 0.1 µM
Structure (SMILES): Cc1ccc(NC(=O)c2cc(C(F)(F)F)ccn2)cc1C1=Cc2cnc(Nc3cccc(CO)c3)nc2N2CCN=C12 [Compound 229, N-(3-(2-((3-(hydroxymethyl)phenyl)amino)-8,9-dihydroimidazo[1′,2′:1,6]pyrido[2,3-d]pyrimidin-6-yl)-4-methylphenyl)-4-(trifluoromethyl)picolinamide]
